Test system: K562 human leukemia cells
Test: Leukemia K562 cell model in rats, survival after onset of circulating blast cells
Format: in vivo
Conditions: oral 30 mg/kg, treated for 7 to 14 days
Method: Male Waster rats (220-230 g) were used. Rats were maintained in cages with raised floors of wide wire mesh to prevent coprophagy. All animals were kept under uniform and controlled conditions of temperature and light/dark (12/12 h) cycles. The animals were fed with standard pelleted diet and water ad libitum and were left one week for acclimatization to animal room condition.
A known weight of total methanol extract and each of the isolated compounds (P1-P5) and the reference drug (TKIs) was dissolved in 3% v/v Tween 80 to produce solutions of 10% concentration.
In absence of LD50 values for the total methanol extract and each of the isolated compounds, an experimental dose of 100/mg kg was selected in this investigation to be given orally to rats. The reference drug, TKIs, were given orally at a certain dose (30 mg/kg). This dose was calculated by converting the therapeutic dose that used in human to rat's dose according to the table of Paget & Barnes (1964). […]
Rats were divided into 8 equal groups. […] After transplantation of the K562 cells, animals were monitored for the presence of circulating blast cells by blood sampling from the retro-orbital plexus according to Ratajczak et al. (1992) method.
After 5 weeks, leukemic cell transplantation in animals was monitored for the development of overt leukemia by retro-orbital plexus bleeding thrice weekly. […]

Cc1ccc(NC(=O)c2ccc(CN3CCN(C)CC3)cc2)cc1Nc1nccc(-c2cccnc2)n1 [TKIs, 4-[(4-methyl-1-piperazinyl)methyl]-N-[4-methyl-3-[[4-(3-pyridinyl)-2-pyrimidinyl]aminophenyl]benzamide methanesulfonate]
survival compared with control animals: not statistically different from the control animals
